Reference: patent US4617149A, “Growth hormone release factor analogs” (Eli Lilly and Company, priority 1983, dated 1986)
No end group written: not given here.

Tests used:
[1] = system: pituitary release of growth hormone; conditions: in vitro, cited from earlier work
[2] = stability of hpGRF control solution by HPLC; type: physicochemical; conditions: 0.5 mg hpGRF/ml in 0.01M HCl, stored at 22° C., over six hours
Description: One mg of hpGRF, obtained from Peninsula Laboratories, was solubilized in one ml of 0.01M hydrochloric acid ([…]). The solution was divided into four equal aliquots, and each was diluted to a concentration of 0.5 mg hpGRF/ml by the addition of 250 μl of 0.01M HCl. The first aliquot was removed and stored at 22° C. for the duration of the experimentation, to serve as a control. Analysis of the control and the extent of each respective chemical modification with hydrogen peroxide, cyanogen bromide, and methyl iodide, described hereinbelow, was performed by high performance liquid chromatography (HPLC). Quantitation was achieved by peak height measurement at 214 nm, of a symmetrical peak eluting at 10 minutes from a (0.46×25 cm) Zorbax C8, 150 Angstrom reverse phase column, at 45° C. in 0.1M ammonium phosphate buffer, pH 7.2/27.5% 1-propanol, v/v. […] Each modification reaction was quenched by a 5:1 dilution (hpGRF final concentration of 0.1 mg/ml) with addition of two ml of 0.1M methionine/0.01M HCl, pH 3.5. Samples were divided and stored at -20° C. and 4° C. prior to analysis of biological activity.

[3] = peptide obtained by selective S-methylation of glucagon; cited from earlier work

hpGRF(1-27)-NH2: shortened GRF analog prepared and tested by Rivier et al. (YADAIFTNSYRKVLGQLSARKLLQDIM-NH2; UniProt P01286 32-58, looked up, fragment)
intrinsic activity [1]: full intrinsic activity
potency as % of the potency of hpGRF(1-40)-OH ([1]; relative to hpGRF(1-40)-OH): 10-20%

CC[C@H](C)[C@H](NC(=O)[C@H](C)NC(=O)[C@H](CC(=O)O)NC(=O)[C@H](C)NC(=O)[C@@H](N)Cc1ccc(O)cc1)C(=O)N[C@@H](Cc1ccccc1)C(=O)N[C@H](C(=O)N[C@@H](CC(N)=O)C(=O)N[C@@H](CO)C(=O)N[C@@H](Cc1ccc(O)cc1)C(=O)N[C@@H](CCCNC(=N)N)C(=O)N[C@@H](CCCCN)C(=O)N[C@H](C(=O)N[C@@H](CC(C)C)C(=O)NCC(=O)N[C@@H](CCC(N)=O)C(=O)N[C@@H](CC(C)C)C(=O)N[C@@H](CO)C(=O)N[C@@H](C)C(=O)N[C@@H](CCCNC(=N)N)C(=O)N[C@@H](CCCCN)C(=O)N[C@@H](CC(C)C)C(=O)N[C@@H](CC(C)C)C(=O)N[C@@H](CCC(N)=O)C(=O)N[C@@H](CC(=O)O)C(=O)N[C@H](C(=O)N[C@@H](CCSC)C(=O)N[C@@H](CO)C(=O)N[C@@H](CCCNC(=N)N)C(=O)N[C@@H](CCC(N)=O)C(=O)N[C@@H](CCC(N)=O)C(=O)NCC(=O)N[C@@H](CCC(=O)O)C(=O)N[C@@H](CO)C(=O)N[C@@H](CC(N)=O)C(=O)N[C@@H](CCC(N)=O)C(=O)N[C@@H](CCC(=O)O)C(=O)N[C@@H](CCCNC(=N)N)C(=O)NCC(=O)N[C@@H](C)C(=O)N[C@@H](CCCNC(=N)N)C(=O)N[C@@H](C)C(=O)N[C@@H](CCCNC(=N)N)C(=O)N[C@@H](CC(C)C)C(N)=O)[C@@H](C)CC)C(C)C)[C@@H](C)O [hpGRF]
change in HPLC peak elution time or height [2]: no change in peak elution time or height

glucagon
activity as % of the inherent activity of the native hormone [3]: less than 1%
